Assay results published in US7625926B2, “P-glycoprotein inhibitor, method for preparing the same and pharmaceutical composition comprising the same” (Hanmi Pharm. Co., Ltd, priority 2003, dated 2009).

How the values were obtained:
[1] = test system: MCF-7/Dox cell, which is MCF-7 expressing p-glycoprotein; settings: enhancement of anticancer activity of paclitaxel against MCF7/Dox; ED50 of paclitaxel alone / ED50 with 50 nM test compound
Experimental: The cells were subcultured in 5% FBS (fetal bovine serum)/RPMI1640 medium supplemented with glutamine 2 mmol, sodium bicarbonate 3.7 g/L and gentamicin 10 mg/L at 37° C. in 5% CO2 incubator under 100% humidity, and collected using a 0.25% trypsin solution containing 3 mM 1,2-cyclohenxandiamine tetraacetic acid.
The collected cells were plated on a 96 well flat-bottomed plate at a density of 2×10^3 cells/well, and incubated in the same medium for 24 hours. Paclitaxel, an anticancer agent, was diluted with the same medium to obtain 10^−11˜10^−6 M test solutions. […] After incubating for 72 hours, the culture medium was removed, each well was treated with 10% trichloroacetic acid for 1 hour to fix the cells, washed with water, and dried at room temperature. After adding a dyeing solution containing 1% acetic acid with 0.4% SRB (sulforhodamine B) thereto, the wells were kept at room temperature for 30 min, and washed with 1% acetic acid to remove remaining SRB. […] Also, the enhancement of the anticancer activity of paclitaxel against MCF7/Dox (resistant cancer cells) was measured by determining ED^PAC50/ED50, wherein ED^PAC50 is the value determined for the case of paclitaxel alone.

[2] = In vivo absorption of orally administered paclitaxel; settings: rats, oral 20 mg/kg paclitaxel with the compound (Control: with vehicle)
Experimental: In order to investigate the activity of the inventive compounds prepared in Examples, in vivo absorption tests were carried out as follows.
Blood samples were taken directly from the heart of each rat before and 1, 2, 4, 6, 8 and 24 hours after the administration.
Each of blood samples was centrifuged at 12,000 rpm to obtain a serum sample, 200 μl of which was mixed with 400 μl of acetonitrile (an internal standard) and the mixture was shaken to obtain an extract. The extract was centrifuged at 12,000 rpm, 4° C. for 5 min to obtain a supernatant.

Row | SMILES | ED50^PAC/ED50 [1] | AUC (ng · hr/ml), area under the curve of blood concentration till 24 hours [2] | Cmax (ng/ml), maximum blood concentration [2] | Tmax (hr), time at the maximum blood concentration [2] [h]
1 | COc1cc2c(cc1OC)CN(CCc1ccc(-n3nnc(-c4cc(OC)c(OC)cc4NC(=O)c4cnc5ccccc5c4)n3)cc1)CC2 [Example 1, quinoline-3-carboxylic acid [2-(2-4-[2-(6,7-dimethoxy-3,4-dihydro-1H-isoquinolin-2-yl)-ethyl]-phenyl-2H-tetrazol-5-yl)-4,5-dimethoxy-phenyl]-amide] | 20.3 | 3,032 ± 1,108 ng · hr/ml | 1,172 ± 433 ng/ml | 1.0
2 | COc1cc2c(cc1OC)CN(CCc1ccc(-n3nnc(-c4cc(OC)c(OC)cc4NC(=O)c4cc(=O)c5c(OC)cccc5o4)n3)cc1)CC2 [Example 23, 5-methoxy-4-oxo-4H-chromene-2-carboxylic acid [2-(2-{4-[2-(6,7-dimethoxy-3,4-dihydro-1H-isoquinolin-2-yl)-ethyl]-phenyl}-2H-tetrazol-5-yl)-4,5-dimethoxy-phenyl]-amide] | 49.9 |  |  | 
3 | COc1cc2c(cc1OC)CN(CCc1ccc(-n3nnc(-c4cc(OC)c(OC)cc4NC(=O)c4cc(OC)c5ccccc5n4)n3)cc1)CC2 [Example 7, 4-methoxy-quinoline-2-carboxylic acid [2-(2-{4-[2-(6,7-dimethoxy-3,4-dihydro-1H-isoquinolin-2-yl)-ethyl]-phenyl}-2H-tetrazol-5-yl)-4,5-methoxy-phenyl]-amide] | 3.3 |  |  | 
4 | COc1cc2c(cc1OC)CN(CCc1ccc(-n3nnc(-c4cc(OC)c(OC)cc4NC(=O)c4coc5ccccc5c4=O)n3)cc1)CC2 [Example 27, 4-oxo-4H-chromene-3-carboxylic acid [2-(2-{4-[2-(6,7-dimethoxy-3,4-dihydro-1H-isoquinolin-2-yl)-ethyl]-phenyl}-2H-tetrazol-5-yl)-4,5-dimethoxy-phenyl]-amide] | 2.1 |  |  | 
5 | COc1cc2c(cc1OC)CN(CCc1ccc(-n3nnc(-c4cc(OC)c(OC)cc4NC(=O)c4ccoc4)n3)cc1)CC2 [Example 20, furan-3-carboxylic acid [2-(2-{4-[2-(6,7-dimethoxy-3,4-dihydro-1H-isoquinolin-2-yl)-ethyl]-phenyl}-2H-tetrazol-5-yl)-4,5-dimethoxy-phenyl]-amide] | 3.5 |  |  | 
6 | COc1cc2c(cc1OC)CN(CCc1ccc(-n3nnc(-c4cc(OC)c(OC)cc4NC(=O)C=Cc4ccccc4)n3)cc1)CC2 [Example 31, N-[2-(2-{4-[2-(6,7-dimethoxy-3,4-dihydro-1H-isoquinolin-2-yl)-ethyl]-phenyl}-2H-tetrazol-5-yl)-4,5-dimethoxy-phenyl]-3-phenyl-acrylamide] | 2.7 |  |  | 
7 | COc1cc2c(cc1OC)CN(CCc1ccc(-n3nnc(-c4cc(OC)c(OC)cc4NC(=O)c4ccnc5ccccc45)n3)cc1)CC2 [Example 6, quinoline-4-carboxylic acid [2-(2-{4-[2-(6,7-dimethoxy-3,4-dihydro-1H-isoquinolin-2-yl)-ethyl]-phenyl}-2H-tetrazol-5-yl)-4,5-dimethoxy-phenyl]-amide] | 3.3 |  |  | 
